In the assay the target is BRAF^V600E protein (Homo sapiens, UniProt P15056, V600E). Briefly: HiBiT cellular BRAF V600E degradation assay. Type of assay: cell-based. The following applies: 24 h incubation; for DC50: A375.10 cells (HiBiT tag knocked in at N-terminal of BRAF V600E), concentration at which 50% of total cellular BRAF V600E is degraded; for Emax: read-out: HiBit 24 h Emax. For orientation: HiBiT is a short tag that completes a luciferase, so light tracks the accessible tagged protein.

Where [1] appears, read: A375.10 cells, Emax = amount of residual protein remaining in the cell after compound treatment.

The text below walks through data of patent US12559492B2, “BRAF degraders” (C4 Therapeutics, Inc., priority 2020, dated 2026).

The DC50 is the midpoint of the concentration-degradation curve. For orientation: Emax means the greatest response seen or fitted, relative to the assay's reference.

Molecules are shown by their SMILES. Counter-ions that a name gives are not always drawn.

Sequence of BRAF^V600E protein (P15056 whole entry V600E): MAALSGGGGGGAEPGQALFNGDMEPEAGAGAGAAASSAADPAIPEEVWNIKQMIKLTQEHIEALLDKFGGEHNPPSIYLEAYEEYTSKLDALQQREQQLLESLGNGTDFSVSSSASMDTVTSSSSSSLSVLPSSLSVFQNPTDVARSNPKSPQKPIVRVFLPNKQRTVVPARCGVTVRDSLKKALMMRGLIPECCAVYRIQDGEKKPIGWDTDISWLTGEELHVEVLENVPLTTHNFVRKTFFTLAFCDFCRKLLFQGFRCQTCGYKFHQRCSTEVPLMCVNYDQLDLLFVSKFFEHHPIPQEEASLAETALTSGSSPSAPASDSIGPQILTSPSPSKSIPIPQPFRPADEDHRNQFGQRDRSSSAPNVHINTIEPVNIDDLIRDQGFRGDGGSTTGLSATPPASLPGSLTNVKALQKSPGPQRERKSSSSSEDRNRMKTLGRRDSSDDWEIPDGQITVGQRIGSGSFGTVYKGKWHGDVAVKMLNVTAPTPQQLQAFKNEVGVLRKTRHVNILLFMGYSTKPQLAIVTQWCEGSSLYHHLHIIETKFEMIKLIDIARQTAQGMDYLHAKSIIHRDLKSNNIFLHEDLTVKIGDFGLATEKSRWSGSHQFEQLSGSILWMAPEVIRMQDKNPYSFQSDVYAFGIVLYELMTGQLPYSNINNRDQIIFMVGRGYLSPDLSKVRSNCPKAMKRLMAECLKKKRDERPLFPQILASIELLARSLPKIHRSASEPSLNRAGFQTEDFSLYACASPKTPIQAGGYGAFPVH

In turn, `CCN(C)S(=O)(=O)Nc1ccc(F)c(C(=O)c2c[nH]c3ncc(-c4cnc(N5CCN(C(=O)CN6CCC(c7ccc(N[C@@H]8CCC(=O)NC8=O)cc7)CC6)CC5)nc4)cc23)c1F` (single isomer, unassigned) [Example A103] had a DC50 of 4 nM. Under setting [1], the Emax was found to be 6%.
The molecule `CCN(C)S(=O)(=O)Nc1ccc(F)c(C(=O)c2c[nH]c3ncc(-c4cnc(N5CCN(C(=O)CC6(O)CCN(c7ccc(NC8CCC(=O)NC8=O)cc7F)CC6)CC5)c(F)c4)cc23)c1F` (stereo not shown) [Example 188, 5-[6-[4-[2-[1-[4-[(2,6-dioxo-3-piperidyl)amino]-2-fluoro-phenyl]-4-hydroxy-4-piperidyl]acetyl]piperazin-1-yl]-5-fluoro-3-pyridyl]-3-[3-[[ethyl(methyl)sulfamoyl]amino]-2,6-difluoro-benzoyl]-1H-pyrrolo[2,3-b]pyridine] displayed a DC50 of 4.5 nM. The maximal response (Emax) under setting [1] came to 5.98%.
Molecule `CCN(C)S(=O)(=O)Nc1ccc(F)c(C(=O)c2c[nH]c3ncc(-c4ccc(N5CCN(C(=O)CC6(O)CCN(c7ccc(C8CCC(=O)NC8=O)cc7F)CC6)CC5)nc4)cc23)c1F` (stereo not shown) [Example 160, 5-[6-[4-[2-[1-[4-(2,6-dioxo-3-piperidyl)-2-fluoro-phenyl]-4-hydroxy-4-piperidyl]acetyl]piperazin-1-yl]-3-pyridyl]-3-[3-[[ethyl(methyl)sulfamoyl]amino]-2,6-difluoro-benzoyl]-1H-pyrrolo[2,3-b]pyridine] gave a DC50 of 3.12 nM. Further, the Emax under setting [1] is 6.7%.
For `CCN(C)S(=O)(=O)Nc1ccc(F)c(C(=O)c2c[nH]c3ncc(-c4cnc(N5CCN(C(=O)CC6(O)CCN(c7ccc(N[C@@H]8CCC(=O)NC8=O)cc7F)CC6)CC5)nc4)cc23)c1F` [Example 174, 5-[2-[4-[2-[1-[4-[[(3R)-2,6-dioxo-3-piperidyl]amino]-2-fluoro-phenyl]-4-hydroxy-4-piperidyl]acetyl]piperazin-1-yl]pyrimidin-5-yl]-3-[3-[[ethyl(methyl)sulfamoyl]amino]-2,6-difluoro-benzoyl]-1H-pyrrolo[2,3-b]pyridine], half-maximal degradation (DC50) was put at 2.39 nM. The Emax under setting [1] was 9.44%.
As to `CCN(C)S(=O)(=O)Nc1ccc(F)c(C(=O)c2c[nH]c3ncc(-c4cnc(N5CCN(C(=O)CC6(O)CCN(c7ccc(N[C@H]8CCC(=O)NC8=O)cc7F)CC6)CC5)nc4)cc23)c1F` (single isomer, unassigned) [Example 166], the 50% degradation concentration (DC50) came out at 2.82 nM. In addition, under setting [1], the maximal response (Emax) stood at 8.9%.
The molecule `CCN(C)S(=O)(=O)Nc1ccc(F)c(C(=O)c2c[nH]c3ncc(-c4ccc(CN5CCN(C(=O)CN6CCC(c7ccc(OC8CCC(=O)NC8=O)cc7)CC6)CC5)cc4)cc23)c1F` (stereo not shown) [Example A22, 5-[4-[[4-[2-[4-[4-(2,6-Dioxopiperidin-3-yl)oxyphenyl]piperidin-1-yl]acetyl]piperazin-1-yl]methyl]phenyl]-3-[3-[[ethyl(methyl)sulfamoyl]amino]-2,6-difluorobenzoyl]-1H-pyrrolo[2,3-b]pyridine] had a DC50 of 77 nM. Also, the Emax under setting [1] came out at 20%.
Consider `CCN(C)S(=O)(=O)Nc1ccc(F)c(C(=O)c2c[nH]c3ncc(-c4cnc(N5CCN(C(=O)C(C)(C)N6CCC(c7ccc(NC8CCC(=O)NC8=O)cc7)CC6)CC5)nc4)cc23)c1F` (stereo not shown) [Example A55, 5-[2-[4-[2-[4-[4-[(2,6-Dioxopiperidin-3-yl)amino]phenyl]piperidin-1-yl]-2-methylpropanoyl]piperazin-1-yl]pyrimidin-5-yl]-3-[3-[[ethyl(methyl)sulfamoyl]amino]-2,6-difluorobenzoyl]-1H-pyrrolo[2,3-b]pyridine], for which the DC50 came to 97 nM. Besides, the Emax under setting [1] stood at 26%.
For the molecule `CCN(C)S(=O)(=O)Nc1ccc(F)c(C(=O)c2c[nH]c3ncc(-c4cnc(N5CCC(NCC(=O)N6CCC(c7ccc(NC8CCC(=O)NC8=O)cc7)CC6)CC5)nc4)cc23)c1F` (stereo not shown) [Example A100, 5-[2-[4-[[2-[4-[4-[(2,6-Dioxopiperidin-3-yl)amino]phenyl]piperidin-1-yl]-2-oxoethyl]amino]piperidin-1-yl]pyrimidin-5-yl]-3-[3-[[ethyl(methyl)sulfamoyl]amino]-2,6-difluorobenzoyl]-1H-pyrrolo[2,3-b]pyridine;hydrochloride], half-maximal degradation (DC50) was put at 10 nM. Besides, the Emax under setting [1] amounted to 11%.
In turn, `CCN(C)S(=O)(=O)Nc1ccc(F)c(C(=O)c2c[nH]c3ncc(-c4ccc(N5CCN(C(=O)CN6CCC(c7ccc(NC8CCC(=O)NC8=O)cc7)CC6)CC5)nc4)cc23)c1F` (stereo not shown) [Example A8, 5-[6-[4-[2-[4-[4-[(2,6-Dioxopiperidin-3-yl)amino]phenyl]piperidin-1-yl]acetyl]piperazin-1-yl]pyridin-3-yl]-3-[3-[[ethyl(methyl)sulfamoyl]amino]-2,6-difluorobenzoyl]-1H-pyrrolo[2,3-b]pyridine] came in with a DC50 of 8.18 nM. For the same molecule, the Emax under setting [1] came to 9.42%.
Molecule `O=C1CCC(Nc2ccc(CC(=O)N[C@H]3C[C@H](OC4CCN(c5ccc(-c6cnc7[nH]cc(C(=O)c8c(F)ccc(NS(=O)(=O)N9CCCC9)c8F)c7c6)cn5)CC4)C3)cc2)C(=O)N1` (stereo partly shown) [Example A105, N-[3-[1-[5-[3-[2,6-Difluoro-3-(pyrrolidin-1-ylsulfonylamino)benzoyl]-1H-pyrrolo[2,3-b]pyridin-5-yl]pyridin-2-yl]piperidin-4-yl]oxycyclobutyl]-2-[4-[(2,6-dioxopiperidin-3-yl)amino]phenyl]acetamide] had a half-maximal degradation concentration (DC50) of 24 nM. Further, the Emax under setting [1] was 30%.
As for `CCN(C)S(=O)(=O)Nc1ccc(F)c(C(=O)c2c[nH]c3ncc(-c4ccc(C5CCN(C(=O)CN6CCC(c7ccc(NC8CCC(=O)NC8=O)cc7)CC6)CC5)nc4)cc23)c1F` (stereo not shown) [Example A49, 5-[6-[1-[2-[4-[4-[(2,6-Dioxopiperidin-3-yl)amino]phenyl]piperidin-1-yl]acetyl]piperidin-4-yl]pyridin-3-yl]-3-[3-[[ethyl(methyl)sulfamoyl]amino]-2,6-difluorobenzoyl]-1H-pyrrolo[2,3-b]pyridine], the DC50 was determined as 17 nM. The Emax under setting [1] amounted to 11%.
The matching figures for `CCN(C)S(=O)(=O)Nc1ccc(F)c(C(=O)c2c[nH]c3ncc(-c4cnc(N5CCN(C(=O)CC6CCN(c7ccc8c(c7)n(C)c(=O)n8C7CCC(=O)NC7=O)CC6)CC5)nc4)cc23)c1F` (stereo not shown) [Example 43, 1-(2,6-dioxo-3-piperidyl)-5-[4-[2-[4-[5-[3-[3-[[ethyl(methyl)sulfamoyl]amino]-2,6-difluoro-benzoyl]-1H-pyrrolo[2,3-b]pyridin-5-yl]pyrimidin-2-yl]piperazin-1-yl]-2-oxo-ethyl]-1-piperidyl]-3-methyl-2-oxo-benzimidazole]: 22.1 nM and 35.2%.
The molecule `CCN(C)S(=O)(=O)Nc1ccc(F)c(C(=O)c2c[nH]c3ncc(-c4cnc(N5CCC(O)(CCN6CCC(c7ccc(NC8CCC(=O)NC8=O)cc7)CC6)CC5)nc4)cc23)c1F` (stereo not shown) [Example 149, 5-[2-[4-[2-[4-[4-[(2,6-dioxo-3-piperidyl)amino]phenyl]-1-piperidyl]ethyl]-4-hydroxy-1-piperidyl]pyrimidin-5-yl]-3-[3-[[ethyl(methyl)sulfamoyl]amino]-2,6-difluoro-benzoyl]-1H-pyrrolo[2,3-b]pyridine] gave a DC50 of 9.25 nM. For the same molecule, the Emax under setting [1] came out at 10.6%.
Taken in the same sequence, the figures for `CCN(C)S(=O)(=O)Nc1ccc(F)c(C(=O)c2c[nH]c3ncc(-c4ccc(N5CCN(C(=O)CN6CCC(c7ccc(OC8CCC(=O)NC8=O)cc7)CC6)CC5)nc4)cc23)c1F` (stereo not shown) [Example A1, 5-[6-[4-[2-[4-[4-(2,6-Dioxopiperidin-3-yl)oxyphenyl]piperidin-1-yl]acetyl]piperazin-1-yl]pyridin-3-yl]-3-[3-[[ethyl(methyl)sulfamoyl]amino]-2,6-difluorobenzoyl]-1H-pyrrolo[2,3-b]pyridine] were 17 nM and 13%.
For the molecule `CCN(C)S(=O)(=O)Nc1ccc(F)c(C(=O)c2c[nH]c3ncc(-c4ccc(N5CCN(C(=O)CN6CCC(N7CCN(C8CCC(=O)NC8=O)C(=O)C7)C(F)(F)C6)CC5)cc4)cc23)c1F` (stereo not shown) [Example 172, 5-[4-[4-[2-[4-[4-(2,6-dioxo-3-piperidyl)-3-oxo-piperazin-1-yl]-3,3-difluoro-1-piperidyl]acetyl]piperazin-1-yl]phenyl]-3-[3-[[ethyl(methyl)sulfamoyl]amino]-2,6-difluoro-benzoyl]-1H-pyrrolo[2,3-b]pyridine], the DC50 is 4.67 nM. The Emax under setting [1] was 6.28%.
The molecule `CCN(C)S(=O)(=O)Nc1cc(F)cc(C(=O)c2c[nH]c3ncc(-c4ccc(N5CCN(C(=O)CC6(O)CCN(c7ccc(NC8CCC(=O)NC8=O)cc7F)CC6)CC5)nc4)cc23)c1F` (stereo not shown) [Example 207, 5-[6-[4-[2-[1-[4-[(2,6-dioxo-3-piperidyl)amino]-2-fluoro-phenyl]-4-hydroxy-4-piperidyl]acetyl]piperazin-1-yl]-3-pyridyl]-3-[3-[[ethyl(methyl)sulfamoyl]amino]-2,5-difluoro-benzoyl]-1H-pyrrolo[2,3-b]pyridine] displayed a DC50 of 1.23 nM. In addition, under setting [1], the Emax amounted to 6.98%.
Take `CCN(C)S(=O)(=O)Nc1ccc(F)c(C(=O)c2c[nH]c3ncc(-c4cnc(N5CCN(C(=O)NC6CCN(c7ccc(NC8CCC(=O)NC8=O)cc7F)CC6)CC5)nc4)cc23)c1F.O=C(O)C(F)(F)F` (stereo not shown) [Example A123, N-[1-[4-[(2,6-Dioxopiperidin-3-yl)amino]-2-fluorophenyl]piperidin-4-yl]-4-[5-[3-[3-[[ethyl(methyl)sulfamoyl]amino]-2,6-difluorobenzoyl]-1H-pyrrolo[2,3-b]pyridin-5-yl]pyrimidin-2-yl]piperazine-1-carboxamide; 2,2,2-trifluoroacetic acid]: the DC50 is 10 nM. Also, under setting [1], the “HiBit 24 h Emax” value amounted to 8%.
